{
  "source": "patent US6496728B2",
  "about": "“Methods for extracting substances using alternating current” (University of Utah Research Foundation, priority 2000, dated 2002)",
  "key": {"[1]": {"experiment": "AC + DC offset iontophoretic transport across human epidermal membrane in side-by-side diffusion cell", "type": "in vitro ADME", "text": "The output AC voltage was manually adjusted between 3 to 8 volts to keep the skin resistance at 2 kΩ (±10%) and the DC offset value was kept constant at 0.25 V during the entire period of the experiment. The same permeants and sampling protocol were used as described in the Constant Current Session."}, "[2]": {"experiment": "AC without DC offset (AC + passive) transport across human epidermal membrane in side-by-side diffusion cell", "type": "in vitro ADME", "conditions": "target skin resistance 2 kΩ; for Papp: all data points from 100 to 330 min", "text": "The same protocol was used to reduce the skin electrical resistance to 2 kΩ as described in the AC+DC Offset method. […] Permeants and sampling protocol were the same as in the Constant Current and AC+DC Offset sessions as described above."}, "[3]": {"experiment": "Constant current DC iontophoretic transport across human epidermal membrane in side-by-side diffusion cell", "experimental": "Iontophoretic transport studies were carried out in a side-by-side two-chamber diffusion cell (diffusional surface area of around 0.8 cm^2 and chamber volume of 2 mL) with HEM at 37° C. The apparent permeability coefficients (P) in each experiment were calculated by: [formula]\nwhere A is the membrane surface area, t is time, Q is the amount of permeant transported into the receiver chamber, and CD is the concentration of permeant in the donor chamber. The pH of the solutions in the donor and receiver chambers was checked after each iontophoresis run to detect possible water hydrolysis.\nConstant current DC transport experiments were carried out at the current level of 0.13 mA/cm^2 using a constant current iontophoretic device (phoresor II Auto, Model No. PM 850, Iomed, Inc., Salt Lake City, Utah) with Ag—AgCl electrodes. […] HEM resistance during iontophoresis was measured by monitoring the electrical potential drop across the membrane using two flexible Luggin capillaries which were inserted into the donor and receiver compartments of the diffusion cells. Each of the Luggin capillaries contained a calomel electrode connected to a voltmeter. The HEM resistance could be determined during iontophoresis according the output current level and the voltmeter readings.\nA trace amount of [^14C] […] One ml of sample was taken from the receiver chamber approximately every 30 minutes and replaced with the fresh PBS. A 10 μl sample was taken from the donor chamber every hour. Samples were mixed with 10 ml scintillation cocktail (Ultima Gold™, Packard Instrument Co., Meriden, Conn.) and assayed by a dual-labeled liquid scintillation counter (Parkard TriCarb™ Model 1900 TR Liquid Scintillation Analyzer)."}, "[4]": {"conditions": "AC + DC, 50 Hz, DC offset 250 mV, target skin resistance 2 kΩ, data points between 100 and 330 minutes"}, "[5]": {"conditions": "0.13 mA/cm^2 DC, data points between 100 and 330 minutes"}},
  "data": [
    {"smiles": "OC[C@@H](O)[C@@H](O)[C@H](O)[C@H](O)CO", "note": "[Mannitol, mannitol]", "values": [
      {"measurement": "Slope of normalized mannitol flux versus time (linear regression)", "setting": "[1]; [4]", "value": "4 × 10^−11 cm sec^−1 min^−1"},
      {"measurement": "Rate of change of mannitol flux, lower with AC+DC Offset method compared with AC without DC Offset method", "setting": "[1]; AC+DC Offset versus AC without DC Offset", "value": 57, "unit": "%"},
      {"measurement": "Papp", "setting": "[1]; human, AC (50 Hz) with 0.25 V DC offset, target skin resistance 2 kΩ, all data points from 100 to 330 min, 36 points (6 skin samples), read-out: Mannitol permeability coefficient, mean", "value": 0.16, "unit": "×10⁻⁶ cm/s"},
      {"measurement": "Papp at 180 min", "setting": "[1]; human, AC (50 Hz) with 0.25 V DC offset, target skin resistance 2 kΩ, one time point (180 min), 6 samples, read-out: Mannitol permeability coefficient, mean", "value": 0.17, "unit": "×10⁻⁶ cm/s"},
      {"measurement": "Slope of normalized mannitol flux versus time (linear regression)", "setting": "[2]; AC 50 Hz, no DC offset, data points between 100 and 330 minutes", "value": "7 × 10^−11 cm sec^−1 min^−1"},
      {"measurement": "Papp", "setting": "[2]; human, AC (50 Hz) w/o DC offset, 28 points (4 skin samples), read-out: Mannitol permeability coefficient, mean", "value": 0.0985, "unit": "×10⁻⁶ cm/s"},
      {"measurement": "Papp at 180 min", "setting": "[2]; human, AC (50 Hz) w/o DC offset, one time point (180 min), 4 samples, read-out: Mannitol permeability coefficient, mean", "value": 0.101, "unit": "×10⁻⁶ cm/s"},
      {"measurement": "Slope of normalized mannitol flux versus time (linear regression)", "setting": "[3]; [5]", "value": "4 × 10^−10 cm sec^−1 min^−1"},
      {"measurement": "Rate of change of mannitol flux, fold higher with constant current DC than with AC without DC Offset", "setting": "[3]; constant current DC versus AC without DC Offset", "value": 5.7, "unit": "fold"},
      {"measurement": "Rate of change of mannitol flux, fold higher with constant current DC than with AC+DC Offset", "setting": "[3]; constant current DC versus AC+DC Offset", "value": 10, "unit": "fold"},
      {"measurement": "Papp", "setting": "[3]; human", "value": 0.16, "unit": "×10⁻⁶ cm/s"},
      {"measurement": "Papp at 180 min", "setting": "[3]; human", "value": 0.15, "unit": "×10⁻⁶ cm/s"}
    ]},
    {"smiles": "CC[N+](CC)(CC)CC.[Br-]", "note": "[TEA^+, tetraethylammonium bromide]", "values": [
      {"measurement": "Slope of normalized TEA^+ flux versus time (linear regression)", "setting": "[1]; [4]", "value": "2 × 10^−9 cm sec^−1 min^−1"},
      {"measurement": "Papp", "setting": "[2]; human, AC (50 Hz) w/o DC offset, 28 points (4 samples), read-out: TEA^+ permeability coefficient, mean", "value": 1.08, "unit": "×10⁻⁶ cm/s"},
      {"measurement": "Slope of normalized TEA^+ flux versus time (linear regression)", "setting": "[3]; [5]", "value": "6 × 10^−9 cm sec^−1 min^−1"}
    ]}
  ]
}
